Data: patent publication US20090123447A1, “COMPOSITIONS AND METHODS TO INHIBIT RNA VIRAL REPRODUCTION” (priority 2007, published 2009)
Where two headings read alike, the source gives them in different places.

What was measured:
[1] = test system: JFH1 HCV (genotype 2a); format: cell-based, hepatitis C virus
Experimental: For viral RNA transfection, JFH1, JFH1/GND, and pSGR-JFH1-Luc were linearized with XbaI and used to synthesize the corresponding positive-sense stranded HCV RNA, as previously described (68). Then, 5×10^6 Huh7 cells were rinsed with Opti-Mem (Invitrogen), mixed briefly with 10-20 μg of the in vitro transcribed RNA in 0.4 ml of Opti-Mem, and then electroporated at 260 volts and 950 μF. […] Medium was changed daily. For infection with HCV, medium collected from JFH1 RNA-transfected cells were cleared of cell debris, as described, and added to naïve Huh7 cells. Typically, 1:2 or 3:2 ratio of the virus-containing medium and fresh cell culture medium were used.
JFH1/GND was used as the negative control. When L-buthionine S,R-sulfoximine (BSO) was used, the cells were pretreated with BSO for 16-24 hrs prior to the initiation of treatments.
Intracellular JFH1 HCV RNA content was also analyzed by qRT-PCR (Taqman), using ABI7300 real time PCR system and one step RT-PCR kit from Applied Biosystems. The forward primer was 5′-[…]-3′ (nt. 146 to 164) and the reverse primer, 5′-[…]-3′ (nt. 277 to 295). The probe was 5′[…]3′ (nt. 168 to 188) and was fluorogenically labeled with FAM (5′) and TAMRA (3′) (Biosearch Technologies, Novato, Calif.). Briefly, the reactions were carried out at 48° C. for 30 min for reverse transcription, followed by denaturation at 95° C. for 10 min, and then 50 cycles of 15 sec denaturation at 95° C. plus 60 sec of annealing and extension at 60° C. All samples were analyzed in duplicates or triplicates. In vitro RNA transcripts were used to generate standard curve to determine RNA copy numbers. The level of 18S rRNA was also analyzed, using manufacturer-optimized protocol, as the control.
To analyze the amount of the extracellular HCV RNA, medium from the cells were cleared by low-speed centrifugation and then, treated with RNaseA at room temperature. Then, the RNA samples were extracted, using Trizol LS Reagent (Invitrogen), and analyzed for HCV RNA content by qRT-PCR.

[2] = test system: HCV replication complex (RC); assay: In vitro HCV replication assay with cytoplasmic lysates of SgPC2 cells; format: cell-based, hepatitis C virus; settings: for effect on the suppression of in vitro HCV replication by H2O2: pretreatment of SgPC2 cells before H2O2
Experimental: In vitro replication assay was carried out according to the protocol of Ali et al., with slight modifications. Briefly, SgPC2 cells were grown to approximately 50-60% confluence in 100-mm dishes. Then, […], and cytoplasmic lysates were prepared by gently lysing the cells in the incomplete replication buffer (prepared without dithiothreitol) immediately after treating the cells with lysolecithin-containing washing solution (150 mM sucrose, 30 mM Hepes, pH 7.4, 33 mM ammonium chloride, 7 mM KCl, 4.5 mM magnesium acetate, 250 μg/ml lysolecithin) for 1-2 min. Twenty to 50 μCi of [α-^32P]CTP (3000 Ci/mmol) and 1-2 μg of actinomycin D were added to 70 μl of these cytoplasmic lysates, and the replication reaction was allowed to proceed for 1 h at 30° C. Then, RNA was isolated by phenol:chloroform extraction and ethanol precipitation. The ^32P-labeled transcripts were then analyzed on a 1% formaldehyde agarose gel which was subsequently washed with H2O, dried, and analyzed with a phosphoimager.

[3] = test system: SgPC2 cells; settings: JC-1 and annexin V-FITC staining
Experimental: Mitochondrial membrane potential was measured with JC1, using a Guava cytometer (Guava Technologies, Inc.). Apoptosis was also monitored with annexin V-FITC, with a 96-Nexin kit from Guava Technologies, Inc.

[4] = test system: newly synthesized HCV RNA; assay: 3H labeling of newly synthesized HCV RNA in SgPC2 cells; format: cell-based, hepatitis C virus; settings: 6 h
Experimental: One million SgPC2 cells were pretreated with 2 μM BAPTA-AM or DMSO alone for 1 h and then treated with 0 or 100 μM H2O2 in the presence of 100 μCi of [^3H]uridine (35-50 Ci/mmol; MP Biomedicals, Irvine, Calif., USA) and 4 μg/ml actinomycin D (Sigma-Aldrich) for 5 to 6 h and then lysed for the RNA isolation. RNA was analyzed on a 1% formaldehyde agarose gel, which was then treated with 1 M sodium salicylate for 20-30 min for fluorography. The RNA gel was also stained with ethidium bromide to visualize rRNA bands to serve as loading controls.

[5] = test system: intracellular calcium concentration ([Ca^2+]i); assay: [Ca^2+]i measurement with Indo-1 AM in SgPC2 cells; format: cell-based, human; settings: for change in [Ca^2+]i: SgPC2 cells
Experimental: Briefly, on the day of the experiment, cells were washed in Krebs-Ringer phosphate buffer (KRPH; pH 7.4, containing 1.0 mM MgSO4, 1.3 mM CaCl2, 10 mM Hepes, 5 mM glucose, 125 mM NaCl, 5 mM KCl, and 10 mM sodium phosphate) and subsequently loaded with 10-20 μM Indo-1 AM (70 μl/coverslip; Molecular Probes, Inc., Eugene, Oreg., USA) containing 10 μM probenecid (Molecular Probes) for 30 min at 37° C. The attached cells were washed and bathed in KRPH/probenecid at 4° C. or room temperature until further analysis. Then, coverslips were individually submerged into KRPH and preequilibrated inside the […] fluorimeter (Hitachi) in darkness for 3 min, and [Ca^2+]i was monitored continuously at 37° C., with excitation at […] and emission at 400 and 450 nm. H2O2 and other agents were injected at different time points, as indicated under Results. [Ca^2+]i was calculated as described. Rmax was determined by adding 8-16 μM digitonin and Rmin with 10 mM ethylene glycol-bis(β-aminoethyl)-N,N,N'-tetraacetic acid (EGTA). […] The baseline, which represented unstimulated cells scanned over time, was plotted along with other measurements or subtracted from the other plots. Cells were serum-depleted, 1 day before the experiment, by incubating them overnight in DMEM plus 0.5% FBS. […] Then, CaCl2 was added before determining the Rmax for each run.

[6] = test system: subgenomic HCV replicon of genotype 1b; assay: microbe, parasite or virus in culture; format: cell-based, hepatitis C virus
Experimental: Huh7 human hepatoma cells were cultured in Dulbecco's modified Eagle medium (DMEM; Invitrogen, Carlsbad, Calif., USA) supplemented with 10% fetal bovine serum (FBS; Invitrogen), 100 units/ml of penicillin, and 100 μg/ml of streptomycin in a 5% CO2 incubator. SgPC2 cells are G418-selected, pooled Huh7 cell clones that support the continuous replication of a subgenomic HCV replicon of genotype 1b and [29] (GenBank Accession No. AJ242652) that carries a S11791 adaptive mutation within the NS5A region. SgPC2 cells were maintained in the above medium supplemented with 0.5 mg/ml G418 (Invitrogen). G418 was removed at least 1 day before cell treatments.

[7] = test system: SgPC2 cells
Experimental: Intracellular GSH concentration was determined using a GSH recycling assay and expressed as nmol/mg protein. ATP level was measured using the Somatic Cell ATP assay kit from Sigma-Aldrich, as previously described. Protein level was determined with a bicinchoninic acid kit (Pierce Biotechnology, Inc., Rockford, Ill., USA).

[8] = test system: IP3
[9] = test system: genomic HCV RNA; settings: Huh7 cells transfected with genomic HCV RNA, H2O2 24 h
Experimental: Then, 5×10^6 Huh7 cells were rinsed with DMEM, mixed briefly with 10-20 μg of the subgenomic replicon RNA in 0.4 ml of DMEM, and then electroporated at 220 V and 975 μF. Then, 1 million cells were seeded onto 60-mm cell culture dishes in DMEM containing 10% FBS. Medium was changed daily and, after 2-4 days, the cells were preincubated with 1,2-bis(2-aminophenoxy)ethane-N,N,N′,N′-tetraacetic acid tetrakis acetoxymethyl ester (BAPTA-AM) or vehicle control alone for 1 h. Then, the cells were exposed to H2O2 for 24 h, and the amount of the HCV RNA was analyzed by Northern blot (see below).
Total RNA was extracted from cells, using Trizol reagent (Invitrogen), following the manufacturer's protocol. Five to 20 μg of RNA was then subjected to Northern blot analysis using a ^32P-labeled double-stranded DNA probe prepared from nt 3669 to nt 6016 of the subgenomic replicon. For these and all other experiments, RNA and protein bands were quantified with a phosphoimager (Cyclone; Perkin-Elmer) or by densitometry using SigmaScan (Jandel Scientific) or IS2000R (Kodak). The intensities of the bands of interest were normalized against the control glyceraldehyde-3-phosphate dehydrogenase (GAPDH) mRNA.

[10] = target: T1, full-length NS5B (Hepatitis C virus genotype 1b, UniProt P26663); assay: NS5B RdRp assay, de novo RNA synthesis in vitro; format: biochemical
T1 construct: Full-length NS5B protein was purified from Escherichia coli; made in house; host or cells: Escherichia coli
T1 sequence (P26663 2420-3010): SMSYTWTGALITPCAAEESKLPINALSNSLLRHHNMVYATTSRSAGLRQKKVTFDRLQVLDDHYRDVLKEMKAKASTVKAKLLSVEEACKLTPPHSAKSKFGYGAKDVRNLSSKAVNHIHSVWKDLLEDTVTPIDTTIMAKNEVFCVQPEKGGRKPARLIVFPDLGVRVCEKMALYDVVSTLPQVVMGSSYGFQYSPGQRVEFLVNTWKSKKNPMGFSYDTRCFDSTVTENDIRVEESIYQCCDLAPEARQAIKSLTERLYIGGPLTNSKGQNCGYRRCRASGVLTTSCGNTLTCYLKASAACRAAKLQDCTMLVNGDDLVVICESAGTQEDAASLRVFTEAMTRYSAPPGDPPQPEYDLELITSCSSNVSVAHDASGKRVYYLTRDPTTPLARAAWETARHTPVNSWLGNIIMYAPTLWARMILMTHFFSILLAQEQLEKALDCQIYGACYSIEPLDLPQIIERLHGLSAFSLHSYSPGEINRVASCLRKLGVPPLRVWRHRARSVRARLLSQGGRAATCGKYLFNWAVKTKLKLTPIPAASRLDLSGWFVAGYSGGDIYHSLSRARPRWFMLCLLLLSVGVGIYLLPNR
Source text: Full-length NS5B protein was purified from Escherichia coli, as previously described, and was used to catalyze de novo RNA synthesis in vitro [36].

## N[C@@H](CCC(=O)N[C@@H](CS)C(=O)NCC(=O)O)C(=O)O [GSH, glutathione, reference compound]
[1]
  restoration of HCV RNA levels suppressed by BSO: not able to restore HCV replication

## C[C@H](CCC(=O)O)C[C@H](C)C[C@H](C)C(=O)/C=C(\O)[C@H](C)C[C@H](C)C/C=C/[C@@H](C)[C@@H](O)[C@@H](C)[C@@H](O)C[C@@H]1CC[C@@](C)([C@H]2CC[C@@](C)([C@@H](C)O)O2)O1 [ionomycin]
[2]
  effect on the suppression of in vitro HCV replication by H2O2: significantly alleviated

## OO [H2O2, Hydrogen peroxide]
[3]
  mitochondrial membrane potential or apoptosis: no significant effect
[4]
  amount of HCV RNA synthesized ([3H]uridine, actinomycin D): significantly decreased
[5]; 100 μM H2O2, with BAPTA (2 μM BAPTA-AM pretreatment)
  AUC of [Ca^2+]i elevation: 128.4±82.3 Ca^2+/min
[5]; 100 μM H2O2, without BAPTA
  AUC of [Ca^2+]i elevation: 935.9±58.9 Ca^2+/min
[5]; H2O2 pretreatment 13 min, no extracellular calcium
  TG-induced calcium elevation after H2O2 pretreatment, % of control: 9.2±2.6%
[5]
  change in [Ca^2+]i: gradual rise
[5]; with 1.3 mM extracellular calcium
  AUC of peroxide-induced calcium elevation: 1278.5±109.5 Ca^2+/min
[5]; without extracellular calcium
  AUC of peroxide-induced calcium elevation: 1105.1±238.1 Ca^2+/min
[6]
  HCV RNA (normalized to GAPDH mRNA), % of untreated control: 36.8±16.6%
  effect on HCV RNA replication after 30 min of treatment: significant suppression
  suppression of HCV RNA level compared with IFN-γ: as effective as 100 to 2500 U/ml IFN-γ
[6]; Hepatitis C virus, 24 h, read-out: IC50 of suppression of HCV RNA level
  IC50: ~25 µM
[7]; 30 min of treatment
  total ATP content, % of untreated control: 125.4±0.3%
[7]; 24 h of treatment
  total ATP content, % of untreated control: 97.3±8.25%
[8]
  inositol 1,3-triphosphate (IP3) level: did not increase
[1]
  intracellular and extracellular HCV RNA levels: significantly decreased
[9]
  genomic HCV RNA, % of untreated control: 34.0±4.0%

## CC(=O)OCOC(=O)CN(CC(=O)OCOC(C)=O)c1ccccc1OCCOc1ccccc1N(CC(=O)OCOC(C)=O)CC(=O)OCOC(C)=O [BAPTA-AM, 1,2-bis(2-aminophenoxy)ethane-N,N,N′-tetraacetic acid tetrakis acetoxymethyl ester]
[4]; 2 μM BAPTA-AM pretreatment
  effect on the suppression of HCV RNA replication by H2O2 ([3H]uridine): completely removed the suppression
[4]
  amount of HCV RNA synthesized ([3H]uridine, actinomycin D): no significant effect
[6]; SgPC2 cells, GO 24 h, 130-200 U/ml catalase or 2 μM BAPTA-AM
  effect on the suppression of HCV RNA by GO: alleviate the suppressive effect of GO
[2]
  effect on the suppression of in vitro HCV replication by H2O2: removed this suppression at both time points tested

## C/C=C(/C)C(=O)O[C@H]1C(C)=C2[C@H]([C@@H]1OC(=O)CCCCCCC)[C@@](C)(OC(C)=O)C[C@H](OC(=O)CCC)[C@@]1(O)[C@H]2OC(=O)[C@@]1(C)O [TG, thapsigargin, reference compound]
[5]; Homo sapiens, 400 nM TG pretreatment 10 min, no extracellular calcium, read-out: peroxide-induced calcium elevation after TG pretreatment, % of control
  activity at 0.4 µM: 58.3 ± 8.4%
[5]
  change in [Ca^2+]i: transient rise
[5]; no extracellular calcium, no H2O2 pretreatment
  AUC of TG-induced calcium response in control cells: 772.3±189.3 Ca^2+/min

## cyclosporin A [reference compound]
[5]
  basal calcium or magnitude/kinetics of the peroxide-induced calcium elevation: no effect

## [Ca+2].[Cl-].[Cl-] [CaCl2]
[10]; 0.1 and 1 μM
  in vitro de novo RNA synthesis by NS5B: only marginally suppressed
[10]; higher concentrations
  NS5B polymerase activity: enhanced the polymerase activity
[2]; added to untreated lysates before assay
  in vitro HCV RNA replication, agent added directly to the cytoplasmic lysates: could decrease

## N.N.N.N.N.N.N.N.N.N.N.N.N.N.[Cl-].[Cl-].[Cl-].[Cl-].[Cl-].[Cl-].[O-2].[O-2].[Ru+3].[Ru+3].[Ru+4] [ruthenium red, reference compound]
[5]
  basal calcium or magnitude/kinetics of the peroxide-induced calcium elevation: no effect

## c1ccc2c(c1)[I+]c1ccccc1-2 [DPI, Diphenylene Iodonium, reference compound]
[6]
  effect on HCV RNA level / replication: significantly elevated
